From patent US12060360B2, “Lysyl oxidase inhibitors” (The Institute of Cancer Research: Royal Cancer Hospital, priority 2017, dated 2024) come the findings set out here.

In assay [1] the test system is PDAC TRP53R172H (p53 mut) cells (mouse pancreatic carcinoma). In words: PDAC allografts, primary tumour volume T/C. To be noted: 200 mg/kg po qd; ratio of average tumour volume treated/vehicle control; p<0.05. Type of assay: in vivo. As to the method: (§1) All procedures involving animals were approved by the Animal Welfare and Ethical Review Body of the Institute of Cancer Research and Cancer Research UK Manchester Institute in accordance with National Home Office regulations under the Animals (Scientific Procedures) Act 1986 and according to the guidelines of the Committee of the National Cancer Research Institute Tumour size was determined by caliper measurements of tumour length, width and depth and volume was calculated as volume=0.5236×length×width×depth (mm).
PDAC allografts: CD1 nu/nu female mice at 6 weeks of age were inoculated subcutaneously in the right flank with 2×10^6 PDAC TRP53R172H (p53 mut) cells at 100 ul suspension per animal. In some examples, the oral dosing by metal gavage commences one day after cells inoculation, at 0.2 ml/20 g bodyweight per animal once daily for 2-4 weeks, with compound dissolved in 5.25% tween20/saline or 5% DMSO/water. In other examples, groups of 7-8 mice were assigned to treatment following stratified allocation of tumour volumes with a median size of circa 100 mm^3. […] Control animals received a similar dosage of vehicle (5.25% tween20/saline). Tumours and weights are measured twice weekly using calipers. At the end of the study the animals are culled, and samples taken, fixed or snap frozen in liquid nitrogen. Frozen samples kept at −80 degree centigrade until being analysed and the fixed samples stained according to the desired marker.
(§2) For therapeutic efficacy assessment, the ratio of average tumour volume between compound treated and vehicle control treated (T/C) is calculated. Reduction in tumour volume in the compound treated group compared to vehicle-treated control group results in T/C<1. The efficacy of LOX inhibitors described in this invention, as measured by T/C in a pancreatic cancer model, a colorectal cancer model and a breast cancer model is shown in Table 2 and is significant (p<0.05) for all the data presented.

A further assay has as its target T1, LOX (Mus musculus, UniProt P28301).
T1 construct: Full length LOX cDNA was then PCR cloned into pEGFP-N1 (Clonetech), or biosensor vector proGFP2-N1; expressed in transfected cells; host or cells: MDCK cells grown as cysts on Matrigel, G418-selected
T1 sequence (P28301 163-411): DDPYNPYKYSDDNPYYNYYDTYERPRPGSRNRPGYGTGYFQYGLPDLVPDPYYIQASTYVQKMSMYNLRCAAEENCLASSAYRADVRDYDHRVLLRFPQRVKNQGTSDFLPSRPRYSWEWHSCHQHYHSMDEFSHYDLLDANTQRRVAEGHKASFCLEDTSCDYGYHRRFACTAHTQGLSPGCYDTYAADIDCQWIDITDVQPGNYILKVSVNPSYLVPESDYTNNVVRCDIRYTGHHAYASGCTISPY
In words: LOX activity in cysts assay (LOX-roGFP2 biosensor, MDCK cysts). To be noted: MDCK cysts, roGFP2 ratio at basal surface; read-out: LOX biosensor IC50 (cyst). The assay is classed as cell-based. The method, boiled down:
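Live MDCK cysts grown 10 days on Matrigel and expressing mouse LOX fused to the roGFP2 redox biosensor, with inhibitors added 30 min before confocal imaging. Oxidised/reduced ratio (405/488 nm excitation, 500–530 nm emission) at the basal cyst surface taken as LOX activity. DMSO defines 0% and 1 mM BAPN 100% inhibition.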

Assay [2] concerns MMTV-PyMT breast transgenic model lung metastases. The assay is described as follows: MMTV-PyMT transgenic mouse breast cancer model, lung metastases quantification T/C. Type of assay: in vivo. To be noted: 200 mg/kg po qd, treated/vehicle control, p<0.05. As to the method: (§3) MMTV-PyMT (Guy et al, 1992) (FVB) female mice were randomized by non-statistical methods to LOX inhibitor treatment groups from day 70 post-birth, when animals had no detectable tumour. Mice were treated daily by oral gavage with LOX inhibitor in vehicle, or daily vehicle (5% DMSO/2.5% Tween20 in water) by oral gavage. Tumour size was determined unblinded by caliper measurements of tumour length, width and depth and volume was calculated as 0.5236×length×width×depth (mm). In all experiments, mice were humanely killed and mammary tumours and lungs were collected when the primary tumours reached ethical limits or signs of ill health.
For lung metastases quantification, all mouse tissue samples were fixed in 10% formalin (Sigma) and embedded in paraffin. Samples were sectioned and hematoxylin and eosin (H&E) stained. Samples were imaged with a Leica CN400 slide scanner. Lung metastases were manually selected using Pen tool in ImageScope. Lung metastases number was counted and area was measured using ImageScope. The investigator was blinded to the experimental groups. The ratio of average metastases surface between compound treated and vehicle control treated (TIC) is calculated. The ratio of average metastases numbers between compound treated and vehicle control treated (T/C) is also calculated. Reduction in metastases area and/or in metastatses number in the compound treated group compared to vehicle-treated control group results in T/C<1. The antimetastatic efficacy of LOX inhibitors described in this invention, as measured by T/C in a model of breast cancer metastasising to lungs is shown in Table 2 and is significant (p<0.05) for all the data presented.

In assay [3] the test system is MMTV-PyMT breast transgenic model primary tumour. In words: MMTV-PyMT transgenic mouse breast cancer model, primary tumour T/C. Type of assay: in vivo. To be noted: 200 mg/kg po qd; ratio of average tumour volume treated/vehicle control; p<0.05. As for the experimental part: as §1, §3, §2

Regarding `CCOc1ccc(N2C[C@H]3CN(CCCC#N)C[C@@H]2C(C)(C)C3)cc1` [Example 42, 4-((1R,5S)-6-(4-ethoxyphenyl)-9,9-dimethyl-3,6-diazabicyclo[3.2.2]nonan-3-yl)butanenitrile], in assay [1], the “T/C PDAC R172H (p53 mut) (mouse pancreatic carcinoma) - primary tumour” value is reported as 0.44. The IC50 at LOX was below 630 nM. Moreover, the “T/C MMT-PyMT breast transgenic model - metastases b) Area” value in assay [2] (lung metastases area) is reported as “b) 0.013”. Moreover, the “T/C MMT-PyMT breast transgenic model - metastases a) Count” value in assay [2] (lung metastases number) was “a) 0.16”. The “T/C MMT-PyMT breast transgenic model - primary tumour” value in assay [3] turned out to be 0.50.

What is called IC50 is the concentration that gives 50% inhibition.
